Results taken from PMC9995496, “A screen for MeCP2-TBL1 interaction inhibitors using a luminescence-based assay” (Scientific Reports, 2023).
Structures can show the parent of a compound that is named as a salt. Where two headings read alike, the source gives them in different places. Numbered stars: 1 amine (or outer) side, 2 acyl side, 3 side chain; on linkers, the order of the positions; unused ones are H or OH. Bridge positions count the residues as written; N and C are the ends. Square brackets hold non-standard residues; d marks the D form. Peptide text beside a SMILES is read from it. I, II: the chains in the order shown. * marks the point of attachment. Actinocin(9to1) = Cc1c2oc3c(C)ccc(C(=O)[*:1])c3nc-2c(C(=O)[*:2])c(N)c1=O; NMeV = CN[C@H](C(=O)O)C(C)C; Cbz = O=C(OCc1ccccc1)*; Sar = CNCC(=O)O

System: PRKACA-PRKAR2A interaction (SmBiT-PRKACA / LgBiT-PRKAR2A), protein kinase A
Set-up: NanoLuc complementation counter-screen in cell extract, PRKACA with PRKAR2A, loss of luminescence, detects NanoLuc interference
Conditions: 0.5 h, 20 µM, inhibitor
[1] = counter-screen for NanoLuc interference
[2] = counter-screen for NanoLuc interference, Inh (PKA)

SMILES	Inh (PKA) [1] [%]	further results
Nc1ncnc2c1C(=O)N(c1ccc([C@H]3CC[C@H](CC(=O)O)CC3)cc1)CCO2 [UM0141824:01, PF-04620110]	1.569	–
CC(C)c1cc(-c2n[nH]c(=O)n2-c2ccc3c(ccn3C)c2)c(O)cc1O [UM0141825:01, Ganetespib (STA-9090)]	30.75	–
CN(NC(=O)CC(=O)NN(C)C(=S)c1ccccc1)C(=S)c1ccccc1 [UM0141826:01, Elesclomol (STA-4783)]	1.652	–
N#Cc1ccc(COC[C@H]2O[C@@H](n3c(NCc4ccc(Cl)c(Cl)c4)nc4c(N)ncnc43)[C@H](O)[C@@H]2O)cc1 [UM0141827:01, VER 155008]	36.57	–
CC[C@@H](C)Nc1cc(C(=O)N[C@H]2C[C@H]3CC[C@@H](C2)N3c2ccc(C(=O)C3CC3)cn2)c(C)cc1C(N)=O [UM0141828:01, XL-888]	5.956	–
Nc1nc2[nH]cc(CCc3ccc(C(=O)N[C@@H](CCC(=O)O)C(=O)O)cc3)c2c(=O)[nH]1 [UM0141829:01, Pemetrexed]	–	Inh (PKA) [2]: -0.0222%
CC(=O)O[C@@]12CO[C@@H]1C[C@H](O)[C@@]1(C)C(=O)[C@H](O)C3=C(C)[C@@H](OC(=O)[C@H](O)[C@@H](NC(=O)OC(C)(C)C)c4ccccc4)C[C@@](O)([C@@H](OC(=O)c4ccccc4)[C@H]21)C3(C)C [UM0141830:01, Docetaxel]	–	Inh (PKA) [2]: 0.7441%
CO[C@@H]1[C@H](OC(=O)/C=C/C=C/C=C/C=C/C(=O)O)CC[C@]2(CO2)[C@H]1[C@@]1(C)O[C@@H]1CC=C(C)C [UM0141832:01, Fumagillin]	0.06739	–
CC(C)[C@H](NC(=O)OCc1ccccc1)C(=O)N[C@H](C=O)Cc1ccccc1 [UM0141833:01, MDL 28170] (Cbz-Val-Phe-aldehyde)	3.195	–
N#Cc1ccc(NCCNCC(=O)N2CCC[C@H]2C#N)nc1 [UM0141834:01, NVP DPP 728 dihydrochloride]	-0.6384	–
Cc1c2oc3c(C)ccc(C(=O)N[C@@H]4C(=O)N[C@H](C(C)C)C(=O)N5CCC[C@H]5C(=O)N(C)CC(=O)N(C)[C@@H](C(C)C)C(=O)O[C@@H]4C)c3nc-2c(C(=O)N[C@@H]2C(=O)N[C@H](C(C)C)C(=O)N3CCC[C@H]3C(=O)N(C)CC(=O)N(C)[C@@H](C(C)C)C(=O)O[C@@H]2C)c(N)c1=O [UM0141835:01, Actinomycin D] (I: T[dV]P[Sar][NMeV] / II: T[dV]P[Sar][NMeV]; ester I:1-I:C, II:1-II:C; linker I:N-II:N via Actinocin(9to1))	21.28	–
COc1cc(-n2c(=S)[nH]c3ccccc3c2=O)c(Cl)cc1Cl [UM0141840:01, Mdivi 1]	54.95	–
O=C1C2CCN(CC2)C1(CO)CO [UM0141841:01, PRIMA-1]	1.308	–
COCC1(CO)C(=O)C2CCN1CC2 (centres unmarked) [UM0141842:01, PRIMA-1MET]	2.921	–
COc1ccc(CCc2nc3cc(-c4c(C)noc4C)ccc3n2C[C@H](C)N2CCOCC2)cc1Cl [UM0141843:01, SGC-CBP30]	18.44	–
CC(=O)SCC(=O)c1ccc(NS(=O)(=O)c2ccc(OCCCN(C)C)cc2)nc1 [UM0141844:01, KD 5170]	2.048	–
Cc1cc(C)cc(C(=O)NOCCCCCC(=O)NO)c1 [UM0141845:01, LMK 235]	-1.396	–
Cc1ccc(NC(=O)CCCCCC(=O)Nc2ccccc2N)cc1 [UM0141846:01, TC-H 106]	6.356	–
COc1cc2c(NC3CCN(C)CC3)nc(N3CCCN(C)CC3)nc2cc1OCCCN(C)C [UM0141847:01, UNC 0224]	3.563	–
O=S(=O)(NCCSSCCNS(=O)(=O)c1cc(Cl)ccc1Cl)c1cc(Cl)ccc1Cl [UM0141849:01, KC7F2]	19.45	–
BrC1C(Br)C(Br)C(Br)C(Br)C1Br (centres unmarked) [UM0141851:01, 1,2,3,4,5,6-Hexabromocyclohexane]	6.156	–
CC(C)(O)/C=C/C(=O)[C@](C)(O)[C@H]1[C@H](O)C[C@@]2(C)[C@@H]3CC=C4[C@@H](C=C(O)C(=O)C4(C)C)[C@]3(C)C(=O)C[C@]12C [UM0141852:01, Cucurbitacin I]	–	Inh (PKA): -0.1004%

SMILES	Inh (PKA) [1] [%]	further results
C=CC(=O)c1ccc2ccccc2c1 [UM0141853:01, ZM 449829]	8.312	–
N#Cc1c(-c2ccccc2)cc(-c2cc(Br)ccc2O)[nH]c1=O [UM0141854:01, TCS PIM-1 1]	47.09	–
COc1ccc(-n2c(SCCCN3C(=O)c4cccc5cccc(c45)C3=O)nnc2-c2ccncc2)cc1 [UM0141857:01, WIKI4]	17.99	–
O=C(/C=C/c1ccccc1)NC(NC(=S)Nc1ccc(Cl)cc1)C(Cl)(Cl)Cl (centres unmarked) [UM0141858:01, Sal 003]	56.23	–
O=S(=O)(O)c1ccc2cc(N=Nc3cc(S(=O)(=O)O)c4cccnc4c3O)ccc2c1 [UM0141859:01, NSC 87877]	48.34	–
OC[C@H]1O[C@@H](c2ccc(Cl)c(Cc3ccc(O[C@H]4CCOC4)cc3)c2)[C@H](O)[C@@H](O)[C@@H]1O [UM0141860:01, Empagliflozin (BI 10773)]	6.685	–
CC1(C)CNc2cc(NC(=O)c3cccnc3NCc3ccncc3)ccc21 [UM0141862:01, Motesanib Diphosphate (AMG-706)]	38.44	–
CC(C)(C)c1cc(C(C)(C)C)c(NC(=O)c2c[nH]c3ccccc3c2=O)cc1O [UM0141863:01, Ivacaftor (VX-770)]	12.69	–
OCCn1cc(-c2ccc3c(c2)CC/C3=N\O)c(-c2ccncc2)n1 [UM0141866:01, GDC-0879]	3.817	–
CCn1c(-c2nonc2N)nc2c(C#CC(C)(C)O)ncc(OC[C@H]3CCCNC3)c21 [UM0141867:01, GSK690693]	29.62	–
COc1ccc(-c2ccc3c(N4CCOCC4)nc(N4C[C@@H](C)O[C@@H](C)C4)nc3n2)cc1CO [UM0141868:01, KU-0063794]	1.476	–
Cn1cc(-c2ccc3nnc(C(F)(F)c4ccc5ncccc5c4)n3n2)cn1 [UM0141869:01, JNJ-38877605]	8.714	–
OCCn1cc(-c2cnc3nnn(Cc4ccc5ncccc5c4)c3n2)cn1 [UM0141870:01, PF-04217903]	1.023	–
CCc1c2c(nc3ccc(OC(=O)N4CCC(N5CCCCC5)CC4)cc13)-c1cc3c(c(=O)n1C2)COC(=O)[C@]3(O)CC [UM0141872:01, Irinotecan]	0.8933	–
O=C1NC(=O)/C(=C\c2ccc3nccnc3c2)S1 [UM0141873:01, AS-605240]	0.3149	–
COC(=O)[C@H](c1ccccc1Cl)N1CCc2sccc2C1 [UM0141874:01, Clopidogrel]	72.93	–
C[C@H](Cn1cnc2c(N)ncnc21)OCP(=O)(O)O [UM0141875:01, Tenofovir]	-0.0985	–
O=P(O)(O)C(O)(Cc1cccnc1)P(=O)(O)O [UM0141876:01, Risedronate Sodium]	-0.1627	–
CNS(=O)(=O)Cc1ccc2[nH]cc(CCN(C)C)c2c1 [UM0141877:01, Sumatriptan Succinate]	0.457	–
CCOc1cc(CC(=O)N[C@@H](CC(C)C)c2ccccc2N2CCCCC2)ccc1C(=O)O [UM0141879:01, Repaglinide]	5.467	–
COc1c(N2C[C@@H]3CCCN[C@@H]3C2)c(F)cc2c(=O)c(C(=O)O)cn(C3CC3)c12 [UM0141881:01, Moxifloxacin HCl]	1.366	–
Cc1ccc(C(=O)N(CCCN)[C@@H](c2nc3cc(Cl)ccc3c(=O)n2Cc2ccccc2)C(C)C)cc1 [UM0141883:01, Ispinesib (SB-715992)]	12.18	–
